Laboratory results: PubChem BioAssay AID2060888 (Molecular Pharmacology Branch, DTP, NCI, 2025)
Each block holds one molecule with its values, some of them ahead of it.

Tested on: 695427-040-R-J1-PDC complex spheroid viability
Assay: Anticancer human tumor 695427-040-R-J1-PDC patient-derived colon adenocarcinoma cell line growth inhibition [RAS]
Settings: for IC50: curve of first compound; for viability, T/C: stronger effect = lower value
Outline: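 Multi-cell-type spheroids: tumor cells plus HUVEC endothelial cells and mesenchymal stem cells. RAS-pathway inhibitors were combined with targeted agents, each dosed in half-log steps down from clinical Cmax, or from 10 microM when Cmax was unknown.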

[1] = second compound 0.000949 µM, first compound 0.0316 µM
[2] = second compound 0.000949 µM, first compound 0.1 µM
[3] = second compound 0.000949 µM, first compound 0.316 µM
[4] = second compound 0.000949 µM, first compound 1 µM
[5] = second compound 0.003 µM, first compound 0.0316 µM
[6] = second compound 0.003 µM, first compound 0.1 µM
[7] = second compound 0.003 µM, first compound 0.316 µM
[8] = second compound 0.003 µM, first compound 1 µM
[9] = second compound 0.00949 µM, first compound 0.0316 µM
[10] = second compound 0.00949 µM, first compound 0.1 µM
[11] = second compound 0.00949 µM, first compound 0.316 µM
[12] = second compound 0.00949 µM, first compound 1 µM
[13] = second compound 0.03 µM, first compound 0.0316 µM
[14] = second compound 0.03 µM, first compound 0.1 µM
[15] = second compound 0.03 µM, first compound 0.316 µM
[16] = second compound 0.03 µM, first compound 1 µM
[17] = second compound 0.0949 µM, first compound 0.0316 µM
[18] = second compound 0.0949 µM, first compound 0.1 µM
[19] = second compound 0.0949 µM, first compound 0.316 µM
[20] = second compound 0.0949 µM, first compound 1 µM
[21] = second compound 0.3 µM, first compound 0.0316 µM
[22] = second compound 0.3 µM, first compound 0.1 µM
[23] = second compound 0.3 µM, first compound 0.316 µM
[24] = second compound 0.3 µM, first compound 1 µM
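Also: viability read after seven days of drug exposure.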
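For viability, T/C in this document: 100% = DMSO vehicle control viability.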

IC50 (second compound 0.000949 µM): 855 nM | IC50 (second compound 0.003 µM): 673 nM | IC50 (second compound 0.00949 µM): 581 nM | IC50 (second compound 0.03 µM): < 31.6 nM | IC50 (second compound 0.0949 µM): < 31.6 nM | IC50 (second compound 0.3 µM): < 31.6 nM
SMILES: CC(Nc1ccc2c(c1)OCCn1cc(N3C(=O)OCC3C(F)F)nc1-2)C(N)=O (stereo unspecified) + CCn1c(-c2cc(N3CCN(C)CC3)cnc2C(C)OC)c2c3cc(ccc31)-c1csc(n1)CC(NC(=O)C1CC1C)C(=O)N1CCCC(N1)C(=O)OCC(C)(C)C2
viability, T/C [1]: 61.4% | viability, T/C [2]: 72.4% | viability, T/C [3]: 69.7% | viability, T/C [4]: 47.1% | viability, T/C (second compound 0.000949 µM, first compound 3.16 µM): 39.1% | viability, T/C (second compound 0.000949 µM, first compound 10 µM): 38% | viability, T/C [5]: 100% | viability, T/C [6]: 70.5% | viability, T/C [7]: 59.5% | viability, T/C [8]: 41.9% | viability, T/C (second compound 0.003 µM, first compound 3.16 µM): 45.6% | viability, T/C (second compound 0.003 µM, first compound 10 µM): 41.9% | viability, T/C [9]: 86.2% | viability, T/C [10]: 66.2% | viability, T/C [11]: 54% | viability, T/C [12]: 49.8% | viability, T/C (second compound 0.00949 µM, first compound 3.16 µM): 32.2% | viability, T/C (second compound 0.00949 µM, first compound 10 µM): 25.6% | viability, T/C [13]: 45.6% | viability, T/C [14]: 48.3% | viability, T/C [15]: 32.2% | viability, T/C [16]: 27.1% | viability, T/C (second compound 0.03 µM, first compound 3.16 µM): 26.6% | viability, T/C (second compound 0.03 µM, first compound 10 µM): 22.3% | viability, T/C [17]: 35% | viability, T/C [18]: 33.3% | viability, T/C [19]: 31.4% | viability, T/C [20]: 19.1% | viability, T/C (second compound 0.0949 µM, first compound 3.16 µM): 21.3% | viability, T/C (second compound 0.0949 µM, first compound 10 µM): 14.6% | viability, T/C [21]: 36.1% | viability, T/C [22]: 22.2% | viability, T/C [23]: 24.3% | viability, T/C [24]: 17.1% | viability, T/C (second compound 0.3 µM, first compound 3.16 µM): 14.9% | viability, T/C (second compound 0.3 µM, first compound 10 µM): 13.7%

IC50 (second compound 0.000949 µM): 81.2 nM | IC50 (second compound 0.003 µM): 85.5 nM | IC50 (second compound 0.00949 µM): 80.3 nM | IC50 (second compound 0.03 µM): 67 nM | IC50 (second compound 0.0949 µM): 66.4 nM | IC50 (second compound 0.3 µM): 35.4 nM
SMILES: O=C(c1ccc(F)c(F)c1Nc1ccc(I)cc1F)N1CC(O)([C@@H]2CCCCN2)C1 + CCn1c(-c2cccnc2C(C)OC)c2c3cc(ccc31)N1CCOC(CC(NC(=O)C(C(C)C)N(C)C(=O)C3(F)CCN(C(=O)C#CC(C)(C)N(C)C)CC3)C(=O)N3CCCC(N3)C(=O)OCC(C)(C)C2)C1
viability, T/C (second compound 0.000949 µM, first compound 0.00316 µM): 71.6% | viability, T/C (second compound 0.000949 µM, first compound 0.01 µM): 85.1% | viability, T/C [1]: 71% | viability, T/C [2]: 44.4% | viability, T/C [3]: 19.4% | viability, T/C [4]: 9.33% | viability, T/C (second compound 0.003 µM, first compound 0.00316 µM): 91.1% | viability, T/C (second compound 0.003 µM, first compound 0.01 µM): 88.8% | viability, T/C [5]: 66.6% | viability, T/C [6]: 51.4% | viability, T/C [7]: 17.6% | viability, T/C [8]: 6.84% | viability, T/C (second compound 0.00949 µM, first compound 0.00316 µM): 88.6% | viability, T/C (second compound 0.00949 µM, first compound 0.01 µM): 67.5% | viability, T/C [9]: 69.9% | viability, T/C [10]: 48.1% | viability, T/C [11]: 22.3% | viability, T/C [12]: 9.42% | viability, T/C (second compound 0.03 µM, first compound 0.00316 µM): 105% | viability, T/C (second compound 0.03 µM, first compound 0.01 µM): 80.2% | viability, T/C [13]: 66.3% | viability, T/C [14]: 42.9% | viability, T/C [15]: 22.1% | viability, T/C [16]: 7.71% | viability, T/C (second compound 0.0949 µM, first compound 0.00316 µM): 81.5% | viability, T/C (second compound 0.0949 µM, first compound 0.01 µM): 84% | viability, T/C [17]: 60.6% | viability, T/C [18]: 43.1% | viability, T/C [19]: 20.8% | viability, T/C [20]: 7.03% | viability, T/C (second compound 0.3 µM, first compound 0.00316 µM): 73.4% | viability, T/C (second compound 0.3 µM, first compound 0.01 µM): 65.5% | viability, T/C [21]: 47% | viability, T/C [22]: 42% | viability, T/C [23]: 19.2% | viability, T/C [24]: 6.79%

IC50 (second compound 0.0316 µM): > 1000 nM | IC50 (second compound 0.1 µM): > 1000 nM | IC50 (second compound 0.316 µM): > 1000 nM | IC50 (second compound 1 µM): > 1000 nM | IC50 (second compound 3.16 µM): 75.7 nM | IC50 (second compound 10 µM): < 3.16 nM
SMILES: Nc1ccn(C2OC(CO)C(O)C2(F)F)c(=O)n1 (stereo unspecified) + C#Cc1c(F)ccc2cc(O)cc(-c3ncc4c(N5CC6CCC(C5)N6)nc(OCC56CCCN5CC(F)C6)nc4c3F)c12
viability, T/C (second compound 0.0316 µM, first compound 0.00316 µM): 83.8% | viability, T/C (second compound 0.0316 µM, first compound 0.01 µM): 82.2% | viability, T/C (second compound 0.0316 µM, first compound 0.0316 µM): 75% | viability, T/C (second compound 0.0316 µM, first compound 0.1 µM): 75.7% | viability, T/C (second compound 0.0316 µM, first compound 0.316 µM): 76.8% | viability, T/C (second compound 0.0316 µM, first compound 1 µM): 70.8% | viability, T/C (second compound 0.1 µM, first compound 0.00316 µM): 87.7% | viability, T/C (second compound 0.1 µM, first compound 0.01 µM): 75.5% | viability, T/C (second compound 0.1 µM, first compound 0.0316 µM): 81.9% | viability, T/C (second compound 0.1 µM, first compound 0.1 µM): 68.8% | viability, T/C (second compound 0.1 µM, first compound 0.316 µM): 78.4% | viability, T/C (second compound 0.1 µM, first compound 1 µM): 67.2% | viability, T/C (second compound 0.316 µM, first compound 0.00316 µM): 85.2% | viability, T/C (second compound 0.316 µM, first compound 0.01 µM): 79.4% | viability, T/C (second compound 0.316 µM, first compound 0.0316 µM): 66.7% | viability, T/C (second compound 0.316 µM, first compound 0.1 µM): 72.3% | viability, T/C (second compound 0.316 µM, first compound 0.316 µM): 67% | viability, T/C (second compound 0.316 µM, first compound 1 µM): 60.5% | viability, T/C (second compound 1 µM, first compound 0.00316 µM): 68% | viability, T/C (second compound 1 µM, first compound 0.01 µM): 63.4% | viability, T/C (second compound 1 µM, first compound 0.0316 µM): 69.5% | viability, T/C (second compound 1 µM, first compound 0.1 µM): 59.6% | viability, T/C (second compound 1 µM, first compound 0.316 µM): 59.2% | viability, T/C (second compound 1 µM, first compound 1 µM): 55.7% | viability, T/C (second compound 3.16 µM, first compound 0.00316 µM): 57.9% | viability, T/C (second compound 3.16 µM, first compound 0.01 µM): 62.4% | viability, T/C (second compound 3.16 µM, first compound 0.0316 µM): 48.9% | viability, T/C (second compound 3.16 µM, first compound 0.1 µM): 45.4% | viability, T/C (second compound 3.16 µM, first compound 0.316 µM): 50.8% | viability, T/C (second compound 3.16 µM, first compound 1 µM): 44.7% | viability, T/C (second compound 10 µM, first compound 0.00316 µM): 37.3% | viability, T/C (second compound 10 µM, first compound 0.01 µM): 34.8% | viability, T/C (second compound 10 µM, first compound 0.0316 µM): 33.2% | viability, T/C (second compound 10 µM, first compound 0.1 µM): 36.4% | viability, T/C (second compound 10 µM, first compound 0.316 µM): 33.4% | viability, T/C (second compound 10 µM, first compound 1 µM): 33%
